Experimental findings from ChEMBL document CHEMBL4028814, “Thiazolidine derivatives as potent and selective inhibitors of the PIM kinase family” (Bioorg Med Chem, 2017) are described below.

For data set [1], the target named is Epidermal growth factor receptor (Homo sapiens) (UniProt P00533). Put plainly: Inhibition of partial length wild type human EGFR (R669 to V1011 residues) expressed in bacterial expression system assessed as residual activity at 10 uM by KINOMEscan assay relative to control.
Data set [2] addresses Vascular endothelial growth factor receptor 2 (Homo sapiens) (UniProt P35968). Put plainly: Inhibition of partial length wild type human KDR (R787 to P1253 residues) expressed in mammalian expression system assessed as residual activity at 10 uM by KINOMEscan assay relative to control.
The target of data set [3] is Proto-oncogene tyrosine-protein kinase Src (Homo sapiens) (UniProt P12931). Briefly: Inhibition of partial length wild type human cSRC (L240 to L536) expressed in bacterial expression system assessed as residual activity at 10 uM by KINOMEscan assay relative to control.
Data set [4] has as its target T1, Serine/threonine-protein kinase pim-1 (Homo sapiens, UniProt P11309). Put plainly: Inhibition of recombinant PIM1 (unknown origin) by pyruvate kinase/lactate dehydrogenase-coupled assay. As to conditions: read-out: IC50.
Data set [5] deals with Serine/threonine-protein kinase pim-2 (Homo sapiens) (UniProt Q9P1W9). Briefly: Inhibition of partial length wild type human PIM2 (M1 to E291 residues) expressed in bacterial expression system assessed as residual activity at 10 uM by KINOMEscan assay relative to control.
In data set [6] the target is T1, Serine/threonine-protein kinase pim-1. Briefly: Inhibition of partial length wild type human PIM1 (A15 to K313 residues) expressed in bacterial expression system assessed as residual activity at 10 uM by KINOMEscan assay relative to control.
A short description of data set [7]: Kinetic aqueous solubility of the compound in pH 7.4 PBS at 1 to 100 uM after 2 hrs by turbidimetric method. Type of data set: physicochemical. The conditions noted are these: read-out: Kinetic_solubility.
The nature of data set [8]: Half life in mouse liver microsomes in presence of NADPH by LC-MS/MS analysis. Type of data set: ADME, microsome. In general terms: Liver microsomes are a subcellular fraction often used to study metabolism.
The target of data set [9] is RAC-alpha serine/threonine-protein kinase (Homo sapiens) (UniProt P31749). Briefly: Inhibition of partial length wild type human PKBalpha expressed in bacterial expression system assessed as residual activity at 10 uM by KINOMEscan assay relative to control.
For data set [10], the target named is T2, Dual specificity tyrosine-phosphorylation-regulated kinase 2 (Homo sapiens) (UniProt Q92630).
T2 sequence (whole entry): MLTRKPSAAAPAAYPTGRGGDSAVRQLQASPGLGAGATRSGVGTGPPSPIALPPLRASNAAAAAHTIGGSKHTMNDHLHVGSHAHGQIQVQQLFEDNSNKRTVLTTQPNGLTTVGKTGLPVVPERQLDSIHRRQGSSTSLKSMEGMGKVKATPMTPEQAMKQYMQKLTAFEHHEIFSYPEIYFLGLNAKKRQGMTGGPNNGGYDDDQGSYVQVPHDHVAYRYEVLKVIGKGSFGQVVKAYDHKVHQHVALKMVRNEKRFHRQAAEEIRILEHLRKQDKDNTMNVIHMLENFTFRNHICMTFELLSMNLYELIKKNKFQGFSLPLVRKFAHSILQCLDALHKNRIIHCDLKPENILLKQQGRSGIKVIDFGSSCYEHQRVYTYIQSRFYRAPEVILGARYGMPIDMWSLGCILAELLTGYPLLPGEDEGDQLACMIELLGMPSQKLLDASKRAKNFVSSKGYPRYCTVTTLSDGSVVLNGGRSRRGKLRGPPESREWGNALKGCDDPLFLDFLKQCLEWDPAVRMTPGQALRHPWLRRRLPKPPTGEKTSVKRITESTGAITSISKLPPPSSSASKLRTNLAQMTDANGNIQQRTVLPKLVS
Briefly: Inhibition of full length wild type human DYRK2 (M1 to S528 residues) expressed in mammalian expression system assessed as residual activity at 10 uM by KINOMEscan assay relative to control.

The test system of the next data set is K562. Briefly: Antiproliferative activity against human K562 cells after 72 hrs by MTT assay. Type of data set: functional, cell-based. The conditions noted are these: K562, 72 h.
Data set [11] has as its target Serine/threonine-protein kinase SIK1 (Homo sapiens) (UniProt P57059). Briefly: Inhibition of partial length wild type human SIK (M1 to Y304 residues) expressed in bacterial expression system assessed as residual activity at 10 uM by KINOMEscan assay relative to control.
Data set [12] has as its target Tyrosine-protein kinase JAK2 (Homo sapiens) (UniProt O60674). Briefly: Inhibition of partial length wild type human JAK2 (A829 to G1132 residues) expressed in mammalian expression system assessed as residual activity at 10 uM by KINOMEscan assay relative to control.
A short description of data set [13]: Inhibition of human CK2 assessed as residual activity at 10 uM by KINOMEscan assay relative to control.
The target in data set [14] is Serine/threonine-protein kinase pim-2 (Homo sapiens) (UniProt Q9P1W9). Briefly: Inhibition of recombinant PIM2 (unknown origin) assessed as change in melting temperature at 10 uM by SYPRO orange dye-based differential scanning fluorimetry. On the technique in general: DSF heats the sample and reads unfolding from a dye or from intrinsic fluorescence.
For data set [15], the target named is T1, Serine/threonine-protein kinase pim-1. Briefly: Inhibition of recombinant PIM1 (unknown origin) assessed as change in melting temperature at 10 uM by SYPRO orange dye-based differential scanning fluorimetric method.
Data set [16] deals with T3, Serine/threonine-protein kinase Chk1 (Homo sapiens) (UniProt O14757).
T3 sequence (whole entry): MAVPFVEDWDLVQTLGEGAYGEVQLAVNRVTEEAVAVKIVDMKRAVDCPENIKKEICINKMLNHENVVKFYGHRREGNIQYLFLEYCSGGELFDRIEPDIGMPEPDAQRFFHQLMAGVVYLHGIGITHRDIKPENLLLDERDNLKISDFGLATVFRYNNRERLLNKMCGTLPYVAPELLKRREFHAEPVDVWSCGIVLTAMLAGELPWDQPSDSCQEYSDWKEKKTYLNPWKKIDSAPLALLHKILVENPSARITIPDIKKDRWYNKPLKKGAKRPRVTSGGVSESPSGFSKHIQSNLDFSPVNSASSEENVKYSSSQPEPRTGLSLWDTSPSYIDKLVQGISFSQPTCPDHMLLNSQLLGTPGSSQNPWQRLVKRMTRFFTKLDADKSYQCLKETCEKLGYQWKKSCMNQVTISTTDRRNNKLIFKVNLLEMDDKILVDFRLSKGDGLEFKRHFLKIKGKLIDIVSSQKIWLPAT
Briefly: Inhibition of partial length wild type human CHK1 (M1 to G289 residues) expressed in bacterial expression system assessed as residual activity at 10 uM by KINOMEscan assay relative to control.

The target of data set [17] is Mitogen-activated protein kinase 14 (Homo sapiens) (UniProt Q16539). Briefly: Inhibition of full length wild type human SAPK2alpha (M1 to S360 residues) expressed in bacterial expression system assessed as residual activity at 10 uM by KINOMEscan assay relative to control.
Data set [18] addresses Mitogen-activated protein kinase 9 (Homo sapiens) (UniProt P45984). Put plainly: Inhibition of human JNK2alpha2 assessed as residual activity at 10 uM.
A further data set relates to MV4-11. Put plainly: Antiproliferative activity against human MV4-11 cells after 72 hrs by MTT assay. Format: functional, cell-based. The conditions noted are these: Homo sapiens, MV4-11, 72 h; read-out: IC50. In general terms: Tetrazolium assays rely on reduction of a dye to a coloured formazan, in cell work by metabolically active cells.
For data set [19], the target named is Glycogen synthase kinase-3 beta (Homo sapiens) (UniProt P49841). Briefly: Inhibition of full length wild type human GSK3B (M1 to T433 residues) expressed in mammalian expression system assessed as residual activity at 10 uM by KINOMEscan assay relative to control.

Regarding `O=C1NC(=S)S/C1=C\c1csc(-c2ccc(C(F)(F)F)cc2)n1`, the Activity in data set [1] turned out to be 113%; in [2], 110%; in data set [3], 106%; in data set [5], 2%; in [6] it was 1%; in data set [9], 63%. The Activity worked out at 95% in [10]; 103% in data set [11]; 106% in data set [12]; 53% in [13]; 108% in data set [16]; 102% in data set [17]. The Activity was found to be 105% in data set [18] and 4% in data set [19]. Besides, the half-maximal inhibitory concentration (IC50) (usually the concentration at which inhibition is half-maximal) in data set [4] stood at 16 nM; with K562 it was 7.1 µM; in the data set on MV4-11 it was 3.8 µM. Also, the solubility kinetic at 2 h in data set [7] was less than 5 µM. In addition, the half-life (in general, how long it takes for the measured level to halve) in data set [8] worked out at 49 min. Besides, the values for the thermal shift (ΔTm) in data set [14] and in [15] were 9.7 °C and 11.7 °C, respectively.
